Measured values published in patent US20240254164A1, “PURIFICATION OF SPECIFIC TRIPEPTIDE BY ACIDIFICATION” (DSM IP Assets B.V., priority 2021, published 2024).
Non-standard residues stand in square brackets, D forms with d. Residues, ends and D or L forms follow the SMILES beside them. Met(O2) = CS(=O)(=O)CC[C@H](N)C(=O)O

What was measured:
Format in all cases: physicochemical
[1] = Precipitation of the tripeptide from aqueous LiOH solution on acidification with HCl and cooling to 4° C.; details: 54 mg in 0.2 ml 0.1 M aqueous LiOH, pH lowered from 9 with 2M HCl, cooled to 4° C.
Protocol: 54 mg Ac-Met(O2)-Val-Val-OH have been dissolved in 0.2 ml 0.1 M aqueous LiOH. A clear solution is formed. The pH was lowered from 9 to the pH as indicated in table 1 by adding 2M HCl and cooled to a temperature of 4° C.
In example 1, a precipitation the tripeptide in fine particles at the bottom of the vessel was observed is formed which was separated by filtration over a glass frit filter.

[2] = Precipitation of acidified tripeptide dissolved in water at reflux and cooled to 4° C. (Example 2); details: pH 1.9; 67.3 g in 500 ml water at reflux, cooled to 4° C. within 2.5 hours, kept 30 minutes
Protocol: 67.3 g acidified Ac-Met(O2)-Val-Val-OH was dissolved in 500 ml water (pH 1.9 of solution) at reflux. The solution was cooled to 4° C. within 2.5 hours and kept at 4° C. during 30 minutes.

[3] = Precipitation of different acidified tripeptides from aqueous solution heated to reflux and cooled to room temperature; details: 0.5 mol/L aqueous solution, reflux, cooled to room temperature
Text: Aqueous solutions of different tripeptides acidified to the pH as given in table 2 were heated to reflux temperature. The clear solutions (0.5 mol/L) have been cooled to room temperature.
The fine particles of example 3 formed at the bottom of the vessel have been collected by a filtration over a glass frit filter.

[4] = Susceptibility against oxidation by atmospheric oxygen; details: compared to the corresponding tripeptide Ac-Met-Val-Val-OH

SMILES: CC(=O)N[C@@H](CCS(C)(=O)=O)C(=O)N[C@H](C(=O)N[C@H](C(=O)O)C(C)C)C(C)C [Ac-Met(O2)-Val-Val-OH] (Ac-[Met(O2)]-Val-Val-OH)
- Observation after cooling ([1]; pH 2): Fine particles formed
- Observation after cooling ([1]; pH 3): Opaque solution. No particles formed
- Observation after cooling [2]: fine particles formed
- Observation after cooling ([3]; pH 2): Fine particles formed
- Susceptibility against oxidation by atmospheric oxygen [4]: significant lower susceptibility against oxidation

SMILES: CC(=O)N[C@@H](CCC(N)=O)C(=O)N1CCC[C@H]1C(=O)N[C@@H](C)C(=O)O [Ac-Gln-Pro-Ala-OH] (Ac-Gln-Pro-Ala-OH)
- Observation after cooling ([3]; pH 1.5): No particles formed

SMILES: CC(=O)N[C@@H](CO)C(=O)N1CCC[C@H]1C(=O)N[C@@H](C)C(=O)O [Ac-Ser-Pro-Ala-OH] (Ac-Ser-Pro-Ala-OH)
- Observation after cooling ([3]; pH 0.9): No particles formed
